According to paper PMC6950057, “Toxicity, Pharmacokinetics, and Gut Microbiome of Oral Administration of Sesterterpene MHO7 Derived from a Marine Fungus” (Marine Drugs, 2019):
Where two headings read alike, the source gives them in different places.

How the values were obtained:
[1] = Plasma pharmacokinetics after single oral dose; assay type: in vivo; conditions: mice plasma, single oral 500 mg·kg^−1, female mice
Procedure: Ninety female KM mice of 8–10 weeks of age (20–22 g) were divided randomly into 15 groups, and, after fasting for 12 h, the mice in other experiments were oral administrated at the dose of 500 mg·kg^−1 bw. About 500 μL blood samples were collected at 0.5, 1, 2, 3, 4, 5, 6, 8, 10, 12, 16, 20, 24, 30 and 36 h into heparinized tubes after the intragastric administration of MHO7. All blood samples were immediately centrifuged at 8000 g for 5 min and the resulting plasma was transferred and then processed as described in sample preparation for the analysis by LC-MS/MS. MHO7 levels in plasma were quantified by HPLC–MS/MS. The calibration curve was constructed by plotting the peak area ratio of MHO7 to the internal standard and the linearity was determined by weighted (1/x) linear regression analysis. The regression equation of the calibration curve was then used to calculate the concentration of MHO7 in the plasma. QC samples and standard curve series solutions were prepared in the same way of blank plasma. The concentrations of HQC, MQC, and LQC were 5, 0.5, and 0.05 μM·L^−1, respectively, and the concentrations of standard curve series solutions were 5, 2.5, 1, 0.5, 0.25, 0.1, 0.05, and 0.01 μM·L^−1.
Data for each group are presented as mean ± SD. Statistical significance of different formulations were measured by one-way analysis of variance (ANOVA) followed by the Tukey Kramer multiple comparison test, using SPSS software version 14.0 (SPSS, Chicago, IL, USA), and the statistical significance was expressed by a p-value of less than 0.05. The main pharmacokinetic parameters of MHO7 was fitted by the average mean of a group in each time point with the Phoenix WinNonLin software version 6.3 (Pharsight, Cary, NC, USA). The gut microbiome analysis was performed using the free online platform of Majorbio Cloud Platform (www.majorbio.com).

[2] = Log P by shaking flask method (n-octanol/water); assay type: physicochemical
Procedure: An HPLC system (Shimadzu, Japan) was equipped with a LC-20AD binary pump system, a SIL-20AD auto sampler, a CBM-20A system controller, and a CTO-20A oven. Separation of MHO7 and IS from endogenous substances was carried out on an Agilent Zorbax XDB C18 column (5 μm, 250 × 4.6 mm, Agilent, Pal Alto, CA, USA), which was kept at 30 °C. The mobile phase was composed of 30% phase A (water) and 70% phase B (acetonitrile) with a flow rate of 1 mL·min^−1. The inject volume of the sample solution was 10 μL.
The phases of distilled water and n-octanol were saturated with each other by shaking for 48 h with 250 rpm in a shaking water bath prior to use. Solutions of MHO7 was prepared in concentration of 10 mM·L^−1 in n-octanol. Accurately measured amounts of the two solvents with necessary quantity of MHO7 were placed in a 5.0 mL centrifuge tube; then, the mixture was carried out at 250 rpm and designated temperature in the shaking water bath for 48 h to afford complete phase separation. The samples of both phases were collected at 0, 4, 8, 12, 24, 30, 36 and 48 h, diluted with methanol (1:1, V) and determined by HPLC with the detection wavelength of 234 nm. Each set of solvent systems for experimental logP/D value was the mean of the three determinations.

[3] = pH 7, 37 °C, octanol/ddH2O, read-out: Log P/D Value O/W (pH 7.0)

Question: What does the source list for `CC(C)=C/C=C/[C@H](C)[C@H]1CC[C@]2(C)C[C@@H]3C(C)=CC(=O)[C@H]3/C(C=O)=C\C[C@@H]12` [MHO7, 6-epi-ophiobolin G]?
Answer: AUC ([1]; KM, mouse): 10500 ng·h/mL; Cmax ([1]; KM, mouse): 1380 ng/mL; MRT ([1]; KM, mouse): 8.76 h; half-life ([1]; KM, mouse): 6.97 h; k el ([1]; KM, mouse, read-out: Lambda_z (converted)): 2.78e-05 s⁻¹; Tmax ([1]; female, KM, mouse, plasma, po, 500 mg/kg): ~8 h; V/F [1]: 479.02 L/kg; logP at 4 h ([2]; 25 °C, read-out: Log P Value): 1.23 ± 0.02; logP at 8 h ([2]; 25 °C, read-out: Log P Value): 1.22 ± 0.04; logP at 12 h ([2]; 25 °C, read-out: Log P Value): 1.23 ± 0.03; logP at 24 h ([2]; 25 °C, read-out: Log P Value): 1.23 ± 0.02; logP at 30 h ([2]; 25 °C, read-out: Log P Value): 1.27 ± 0.15; logP at 36 h ([2]; 25 °C, read-out: Log P Value): 1.27 ± 0.03; logP at 48 h ([2]; 25 °C, read-out: Log P Value): 1.29 ± 0.05; logP at 4 h [2, 3]: 2.55 ± 0.01; logP at 8 h [2, 3]: 2.51 ± 0.04; logP at 12 h [2, 3]: 2.48 ± 0.02; logP at 24 h [2, 3]: 2.49 ± 0.02; logP at 30 h [2, 3]: 2.47 ± 0.01; logP at 36 h [2, 3]: 2.49 ± 0.03; logP at 48 h [2, 3]: 2.48 ± 0.03
